Reference: patent US8183248B2, “Substituted pyrrolo[2,3-d]pyrimidines and compositions as protein kinase inhibitors” (IRM LLC, priority 2005, dated 2012)

Tests used:
[1] = biological target: T1, E255V Bcr-abl (Ba/F3 cells) (Homo sapiens, UniProt P00519, E255V); test: Proliferation of Ba/F3 cells expressing E255V Bcr-abl; type: cell-based
T1 construct: expressed in transfected cells; host or cells: Ba/F3 (murine pro-B cells); the other entry of the earlier key: BCR (P11274, Breakpoint cluster region protein)
Protocol: 32D-p210 cells are plated into 96 well TC plates at a density of 15,000 cells per well. 50 μL of two fold serial dilutions of the test compound (Cmax is 40 μM) are added to each well (STI571 is included as a positive control). After incubating the cells for 48 hours at 37° C., 5% CO2, 15 μL of MTT (Promega) is added to each well and the cells are incubated for an additional 5 hours. The optical density at 570 nm is quantified spectrophotometrically and IC50 values, the concentration of compound required for 50% inhibition, determined from a dose response curve.
Compounds of the invention are tested for their antiproliferative effect on Ba/F3 cells expressing either wild type or the mutant forms of BCR-Abl (G250E, E255V, T315I, F317L, M351T) that confers resistance or diminished sensitivity to STI571. The antiproliferative effect of these compounds on the mutant-BCR-Abl expressing cells and on the non transformed cells were tested at 10, 3.3, 1.1 and 0.37 μM as described above (in media lacking IL3). The IC50 values of the compounds lacking toxicity on the untransformed cells were determined from the dose response curves obtained as describe above.

MKK4(m) = biological target: T2, MKK4(m) (Mus musculus, UniProt P47809); test: Upstate KinaseProfiler radio-enzymatic filter binding assay; type: biochemical; settings: read-out: percentage inhibition MKK4(m)
T2 construct: purchased Upstate
T2 sequence (P47809 whole entry): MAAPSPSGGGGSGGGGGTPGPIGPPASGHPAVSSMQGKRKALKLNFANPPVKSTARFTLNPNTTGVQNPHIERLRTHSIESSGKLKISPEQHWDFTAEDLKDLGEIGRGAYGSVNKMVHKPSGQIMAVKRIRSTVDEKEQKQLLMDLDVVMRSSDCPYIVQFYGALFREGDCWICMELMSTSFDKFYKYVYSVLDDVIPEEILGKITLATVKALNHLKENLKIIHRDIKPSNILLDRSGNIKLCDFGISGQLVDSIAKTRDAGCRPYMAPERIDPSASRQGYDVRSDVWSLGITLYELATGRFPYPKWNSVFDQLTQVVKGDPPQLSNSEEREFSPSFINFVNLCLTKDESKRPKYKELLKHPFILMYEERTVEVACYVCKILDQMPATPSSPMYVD
Protocol: (§1) Compounds of the invention are assessed for their ability to inhibit individual members of the kinase panel. The compounds are tested in duplicates at a final concentration of 10 μM following this generic protocol. Note that the kinase buffer composition and the substrates vary for the different kinases included in the “Upstate KinaseProfiler™” panel. Kinase buffer (2.5 μL, 10×—containing MnCl2 when required), active kinase (0.001-0.01 Units; 2.5 μL), specific or Poly(Glu4-Tyr) peptide (5-500 μM or 0.01 mg/ml) in kinase buffer and kinase buffer (50 μM; 5 μL) are mixed in an eppendorf on ice. A Mg/ATP mix (10 μL; 67.5 (or 33.75) mM MgCl2, 450 (or 225) μM ATP and 1 μCi/μl [γ-^32P]-ATP (3000 Ci/mmol)) is added and the reaction is incubated at about 30° C. for about 10 minutes. The reaction mixture is spotted (20 μL) onto a 2 cm×2 cm P81 (phosphocellulose, for positively charged peptide substrates) or Whatman No. 1 (for Poly (Glu4-Tyr) peptide substrate) paper square. The assay squares are washed 4 times, for 5 minutes each, with 0.75% phosphoric acid and washed once with acetone for 5 minutes. The assay squares are transferred to a scintillation vial, 5 ml scintillation cocktail are added and ^32P incorporation (cpm) to the peptide substrate is quantified with a Beckman scintillation counter. Percentage inhibition is calculated for each reaction.

CSK(h) = biological target: T3, CSK(h) (Homo sapiens, UniProt P41240); test: as above; type: biochemical; settings: read-out: percentage inhibition CSK(h)
T3 construct: purchased Upstate
T3 sequence (P41240 whole entry): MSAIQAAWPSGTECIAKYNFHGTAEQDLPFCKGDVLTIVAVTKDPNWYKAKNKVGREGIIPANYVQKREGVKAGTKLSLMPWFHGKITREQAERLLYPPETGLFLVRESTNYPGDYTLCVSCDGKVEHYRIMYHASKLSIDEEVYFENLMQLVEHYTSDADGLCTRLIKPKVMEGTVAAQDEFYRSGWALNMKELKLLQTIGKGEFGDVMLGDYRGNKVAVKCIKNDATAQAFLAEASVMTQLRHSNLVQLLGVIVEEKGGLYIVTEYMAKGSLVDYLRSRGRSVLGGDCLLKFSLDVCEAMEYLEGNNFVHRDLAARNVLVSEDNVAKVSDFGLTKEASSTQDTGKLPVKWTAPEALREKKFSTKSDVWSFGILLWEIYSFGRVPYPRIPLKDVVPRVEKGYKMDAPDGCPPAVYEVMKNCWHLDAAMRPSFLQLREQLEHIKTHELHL
Protocol: as §1

SAPK3(h) = biological target: T4, SAPK3(h) (Homo sapiens, UniProt P53778); test: as above; type: biochemical; settings: read-out: percentage inhibition SAPK3(h)
T4 construct: purchased Upstate
T4 sequence (P53778 whole entry): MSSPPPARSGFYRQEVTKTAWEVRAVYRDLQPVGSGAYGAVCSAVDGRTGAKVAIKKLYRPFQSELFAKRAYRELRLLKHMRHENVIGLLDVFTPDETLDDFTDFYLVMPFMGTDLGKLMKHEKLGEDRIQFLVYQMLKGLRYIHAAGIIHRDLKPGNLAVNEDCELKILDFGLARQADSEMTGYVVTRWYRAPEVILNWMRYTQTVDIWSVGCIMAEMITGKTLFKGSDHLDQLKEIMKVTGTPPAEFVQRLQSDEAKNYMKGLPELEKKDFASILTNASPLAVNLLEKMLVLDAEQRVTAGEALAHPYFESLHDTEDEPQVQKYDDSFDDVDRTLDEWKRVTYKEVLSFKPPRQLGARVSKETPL
Protocol: as §1

c-RAF(h) = biological target: T5, c-RAF(h) (Homo sapiens, UniProt P04049); test: as above; type: biochemical; settings: read-out: percentage inhibition c-RAF(h)
T5 construct: purchased Upstate
T5 sequence (P04049 whole entry): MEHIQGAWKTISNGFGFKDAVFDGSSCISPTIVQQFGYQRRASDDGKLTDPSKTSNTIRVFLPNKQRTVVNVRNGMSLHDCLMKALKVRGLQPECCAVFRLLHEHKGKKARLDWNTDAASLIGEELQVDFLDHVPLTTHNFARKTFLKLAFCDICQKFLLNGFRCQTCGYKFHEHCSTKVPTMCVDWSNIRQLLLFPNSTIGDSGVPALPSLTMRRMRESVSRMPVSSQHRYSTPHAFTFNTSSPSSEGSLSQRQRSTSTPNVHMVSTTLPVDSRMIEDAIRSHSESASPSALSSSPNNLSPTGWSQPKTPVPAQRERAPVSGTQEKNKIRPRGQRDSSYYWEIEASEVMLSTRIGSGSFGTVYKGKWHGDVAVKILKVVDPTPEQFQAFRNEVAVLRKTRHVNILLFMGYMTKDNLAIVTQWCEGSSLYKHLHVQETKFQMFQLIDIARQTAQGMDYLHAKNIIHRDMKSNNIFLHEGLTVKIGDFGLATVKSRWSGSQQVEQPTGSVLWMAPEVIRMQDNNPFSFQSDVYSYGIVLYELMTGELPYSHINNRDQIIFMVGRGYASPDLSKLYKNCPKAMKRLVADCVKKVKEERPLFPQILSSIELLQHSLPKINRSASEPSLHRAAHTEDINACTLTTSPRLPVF
Protocol: as §1

MKK6(h) = biological target: T6, MKK6(h) (Homo sapiens, UniProt P52564); test: as above; type: biochemical; settings: read-out: percentage inhibition MKK6(h)
T6 construct: purchased Upstate
Protocol: as §1

Met(h) = biological target: T7, Met(h) (Homo sapiens, UniProt P08581); test: as above; type: biochemical; settings: read-out: percentage inhibition Met(h)
T7 construct: purchased Upstate
Protocol: as §1

SAPK2p(h) = biological target: T8, SAPK2p(h) (Homo sapiens, UniProt Q15759); test: as above; type: biochemical; settings: read-out: percentage inhibition SAPK2p(h)
T8 construct: purchased Upstate
Protocol: as §1

IKKα(h) = biological target: T9, IKKα(h) (Homo sapiens, UniProt O15111); test: as above; type: biochemical; settings: read-out: percentage inhibition IKKα(h)
T9 construct: purchased Upstate
Protocol: as §1

Flt3(h) = biological target: T10, Flt3(h) (Homo sapiens, UniProt P36888); test: as above; type: biochemical; settings: read-out: percentage inhibition Flt3(h)
T10 construct: purchased Upstate
Protocol: as §1

PKCα(h) = biological target: T11, PKCα(h) (Homo sapiens, UniProt P17252); test: as above; type: biochemical; settings: read-out: percentage inhibition PKCα(h)
T11 construct: purchased Upstate
Protocol: as §1

Lck(h) = biological target: T12, Lck(h) (Homo sapiens, UniProt P06239); test: as above; type: biochemical; settings: read-out: percentage inhibition Lck(h)
T12 construct: purchased Upstate
Protocol: as §1

Rsk1(h) = biological target: T13, Rsk1(h) (Homo sapiens, UniProt Q15418); test: as above; type: biochemical; settings: read-out: percentage inhibition Rsk1(h)
T13 construct: purchased Upstate
T13 sequence (Q15418 whole entry): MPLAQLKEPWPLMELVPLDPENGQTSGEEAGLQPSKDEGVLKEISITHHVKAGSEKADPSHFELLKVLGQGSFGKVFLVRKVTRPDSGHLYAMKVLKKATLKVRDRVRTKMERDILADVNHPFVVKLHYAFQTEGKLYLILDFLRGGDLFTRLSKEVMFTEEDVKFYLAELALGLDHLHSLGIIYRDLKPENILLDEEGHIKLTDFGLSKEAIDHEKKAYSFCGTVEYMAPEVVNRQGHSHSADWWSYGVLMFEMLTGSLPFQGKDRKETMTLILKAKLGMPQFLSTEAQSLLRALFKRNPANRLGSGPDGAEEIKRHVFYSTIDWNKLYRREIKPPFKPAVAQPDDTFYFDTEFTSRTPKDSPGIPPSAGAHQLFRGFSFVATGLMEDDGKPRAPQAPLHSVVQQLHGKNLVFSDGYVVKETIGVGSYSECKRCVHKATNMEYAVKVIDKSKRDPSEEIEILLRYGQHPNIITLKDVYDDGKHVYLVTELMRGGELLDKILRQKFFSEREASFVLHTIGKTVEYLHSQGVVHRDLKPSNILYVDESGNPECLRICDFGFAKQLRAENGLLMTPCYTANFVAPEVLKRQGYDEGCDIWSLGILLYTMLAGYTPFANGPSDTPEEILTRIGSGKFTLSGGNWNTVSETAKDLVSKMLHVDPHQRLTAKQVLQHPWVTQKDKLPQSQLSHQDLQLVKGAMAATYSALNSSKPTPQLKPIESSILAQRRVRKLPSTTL
Protocol: as §1

SAPK4(h) = biological target: T14, SAPK4(h) (Homo sapiens, UniProt O15264); test: as above; type: biochemical; settings: read-out: percentage inhibition SAPK4(h)
T14 construct: purchased Upstate
T14 sequence (O15264 whole entry): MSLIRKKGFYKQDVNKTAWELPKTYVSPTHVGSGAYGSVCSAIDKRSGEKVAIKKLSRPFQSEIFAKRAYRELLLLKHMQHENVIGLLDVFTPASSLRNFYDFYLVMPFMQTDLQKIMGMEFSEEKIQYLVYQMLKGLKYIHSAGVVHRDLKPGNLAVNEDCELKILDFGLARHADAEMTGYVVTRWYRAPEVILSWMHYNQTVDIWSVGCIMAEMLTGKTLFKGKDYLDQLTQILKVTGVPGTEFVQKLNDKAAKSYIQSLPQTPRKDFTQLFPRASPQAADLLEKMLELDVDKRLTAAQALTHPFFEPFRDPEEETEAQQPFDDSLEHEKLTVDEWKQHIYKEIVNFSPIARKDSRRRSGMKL
Protocol: as §1

Tie2(h) = biological target: T15, Tie2(h) (Homo sapiens, UniProt Q02763); test: as above; type: biochemical; settings: read-out: percentage inhibition Tie2(h)
T15 construct: purchased Upstate
Protocol: as §1

ROCK-II(h) = biological target: T16, ROCK-II(h) (Homo sapiens, UniProt O75116); test: as above; type: biochemical; settings: read-out: percentage inhibition ROCK-II(h)
T16 construct: purchased Upstate
Protocol: as §1

PDGFRα(h) = biological target: T17, PDGFRα(h) (Homo sapiens, UniProt P16234); test: as above; type: biochemical; settings: read-out: percentage inhibition PDGFRα(h)
T17 construct: purchased Upstate
Protocol: as §1

TrkB(h) = biological target: T18, TrkB(h) (Homo sapiens, UniProt Q16620); test: as above; type: biochemical; settings: read-out: percentage inhibition TrkB(h)
T18 construct: purchased Upstate
Protocol: as §1

PKA(h) = biological target: T19, PKA(h) (Homo sapiens, UniProt P17612); test: as above; type: biochemical; settings: read-out: percentage inhibition PKA(h)
T19 construct: purchased Upstate
Protocol: as §1

IKKβ(h) = biological target: T20, IKKβ(h) (Homo sapiens, UniProt O14920); test: as above; type: biochemical; settings: read-out: percentage inhibition IKKβ(h)
T20 construct: purchased Upstate
T20 sequence (O14920 whole entry): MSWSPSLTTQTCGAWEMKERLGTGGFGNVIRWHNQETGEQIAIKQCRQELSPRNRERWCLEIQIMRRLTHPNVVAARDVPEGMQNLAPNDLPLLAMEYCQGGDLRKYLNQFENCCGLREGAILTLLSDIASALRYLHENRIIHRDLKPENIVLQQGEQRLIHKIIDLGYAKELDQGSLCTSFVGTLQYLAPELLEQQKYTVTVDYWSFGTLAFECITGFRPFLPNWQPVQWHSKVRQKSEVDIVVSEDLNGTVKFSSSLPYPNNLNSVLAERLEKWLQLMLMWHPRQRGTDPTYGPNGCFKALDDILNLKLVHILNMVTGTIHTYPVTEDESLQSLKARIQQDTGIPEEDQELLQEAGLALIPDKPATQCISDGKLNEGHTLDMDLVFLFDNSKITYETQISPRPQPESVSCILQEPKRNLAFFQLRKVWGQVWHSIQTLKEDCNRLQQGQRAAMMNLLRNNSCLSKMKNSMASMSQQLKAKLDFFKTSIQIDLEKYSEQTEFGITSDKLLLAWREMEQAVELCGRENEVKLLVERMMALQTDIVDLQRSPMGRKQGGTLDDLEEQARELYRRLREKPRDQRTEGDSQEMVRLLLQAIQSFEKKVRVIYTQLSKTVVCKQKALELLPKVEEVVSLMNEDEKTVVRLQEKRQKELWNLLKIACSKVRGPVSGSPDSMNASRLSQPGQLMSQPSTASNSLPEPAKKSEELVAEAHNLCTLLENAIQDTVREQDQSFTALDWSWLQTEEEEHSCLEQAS
Protocol: as §1

BTK(h) = biological target: T21, BTK(h) (Homo sapiens, UniProt Q06187); test: as above; type: biochemical; settings: read-out: percentage inhibition BTK(h)
T21 construct: purchased Upstate
T21 sequence (Q06187 whole entry): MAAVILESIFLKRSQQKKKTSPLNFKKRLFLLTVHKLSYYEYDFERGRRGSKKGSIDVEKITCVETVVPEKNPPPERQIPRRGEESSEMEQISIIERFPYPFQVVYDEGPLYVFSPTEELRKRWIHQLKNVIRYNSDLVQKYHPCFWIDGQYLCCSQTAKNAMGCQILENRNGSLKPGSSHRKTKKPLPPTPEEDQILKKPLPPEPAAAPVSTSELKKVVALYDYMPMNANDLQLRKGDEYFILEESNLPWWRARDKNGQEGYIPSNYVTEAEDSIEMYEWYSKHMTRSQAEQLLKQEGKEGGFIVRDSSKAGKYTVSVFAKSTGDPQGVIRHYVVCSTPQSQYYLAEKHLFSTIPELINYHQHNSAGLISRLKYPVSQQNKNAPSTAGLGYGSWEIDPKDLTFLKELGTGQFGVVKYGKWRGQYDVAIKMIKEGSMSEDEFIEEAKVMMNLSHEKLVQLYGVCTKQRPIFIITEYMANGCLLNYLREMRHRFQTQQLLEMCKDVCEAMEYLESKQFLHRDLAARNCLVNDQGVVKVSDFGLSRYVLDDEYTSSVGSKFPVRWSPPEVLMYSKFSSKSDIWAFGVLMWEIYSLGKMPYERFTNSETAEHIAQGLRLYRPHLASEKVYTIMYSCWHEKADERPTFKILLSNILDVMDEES
Protocol: as §1

PDGFR-β = biological target: T22, PDGFR-β (Homo sapiens, UniProt P09619); test: PDGFRβ (Cellular Assay), Ba/F3-Tel-PDGFRβ proliferation; type: cell-based; settings: read-out: IC50 for PDGFR-β
T22 construct: fused on or other part: P41212 (Transcription factor ETV6)
T22 sequence (P09619 600-962 limits assumed, change not shown): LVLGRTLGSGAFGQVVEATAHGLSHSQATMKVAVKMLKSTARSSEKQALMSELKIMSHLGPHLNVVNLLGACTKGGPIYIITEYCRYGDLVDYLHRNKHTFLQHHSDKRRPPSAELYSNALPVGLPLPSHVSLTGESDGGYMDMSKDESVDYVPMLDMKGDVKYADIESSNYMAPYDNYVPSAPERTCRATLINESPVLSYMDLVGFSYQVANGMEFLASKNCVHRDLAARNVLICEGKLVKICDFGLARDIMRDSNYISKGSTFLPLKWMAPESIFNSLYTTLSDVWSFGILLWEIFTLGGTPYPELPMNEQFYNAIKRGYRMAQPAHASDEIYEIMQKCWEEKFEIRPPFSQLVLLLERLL

Q: For CCN1CCN(Cc2ccc(NC(=O)c3ccc(C)c(NC(=O)N(C)c4ncnc5[nH]ccc45)c3)cc2C(F)(F)F)CC1 [Example 4, N-[4-(4-Ethyl-piperazin-1-ylmethyl)-3-trifluoromethyl-phenyl]-4-methyl-3-[3-methyl-3-(7H-pyrrolo[2,3-d]pyrimidin-4-yl)-ureido]-benzamide], which IC50 [1] is on record?
A: < 5 nM

Q: And the inhibition at 10 µM (MKK4(m))?
A: 87%

Q: And the inhibition at 10 µM (CSK(h))?
A: 100%

Q: What about the inhibition at 10 µM (SAPK3(h)) of the same compound?
A: 92%

Q: What about the inhibition at 10 µM (c-RAF(h)) of the same compound?
A: 97%

Q: And the inhibition at 10 µM (MKK6(h))?
A: 98%

Q: What about the inhibition at 10 µM (Met(h)) of the same compound?
A: 70%

Q: And the inhibition at 10 µM (SAPK2p(h))?
A: 85%

Q: And the inhibition at 10 µM (IKKα(h))?
A: 98%

Q: And the inhibition at 10 µM (Flt3(h))?
A: 96%

Q: And the inhibition at 10 µM (PKCα(h))?
A: 61%

Q: What about the inhibition at 10 µM (Lck(h)) of the same compound?
A: 100%

Q: And the inhibition at 10 µM (Rsk1(h))?
A: 95%

Q: And the inhibition at 10 µM (SAPK4(h))?
A: 82%

Q: And the inhibition at 10 µM (Tie2(h))?
A: 98%

Q: What about the inhibition at 10 µM (ROCK-II(h)) of the same compound?
A: 78%

Q: And the inhibition at 10 µM (PDGFRα(h))?
A: 93%

Q: What about the inhibition at 10 µM (TrkB(h)) of the same compound?
A: 99%

Q: And the inhibition at 10 µM (PKA(h))?
A: 92%

Q: What about the inhibition at 10 µM (IKKβ(h)) of the same compound?
A: 96%

Q: What about the inhibition at 10 µM (BTK(h)) of the same compound?
A: 99%

Q: And the GI50 (PDGFR-β)?
A: 3.8 nM
